Data published in patent US8535903B2, “Nitroreductase enzymatic substrates” (BioMerieux, S.A., priority 2009, dated 2013).

Legend:
Test in all cases: Detection of nitroreductase activity on Columbia medium with substrate
Assay type in all cases: cell-based
Details in all cases: 24 hours at 37° C.
[1] = test system: Bacillus subtilis NCTC 9 372; design: key to Growth: NG: no growth; 0.5: low growth; 1: moderate growth; 2: good growth; key to Col. (color of the colonies) / Fluo. (fluorescence of the colonies): —: no color/fluorescence
Description: (§1) 40 mg of substrate were dissolved in 4 ml of dimethylsulfoxide and added to 400 ml of previously autoclaved Columbia medium. The medium was distributed in Petri dishes 90 mm in diameter at the rate of 20 ml per dish. Seventeen strains of microorganisms obtained from collections and belonging to various species of bacteria and yeasts are inoculated as spots of about 10 000 colony forming units. The media are incubated for 24 hours at 37° C. and then the colonies formed are examined visually and under a UV lamp at 365 nm.

[2] = test system: Candida albicans ATCC 90 028; design: key to Growth: NG: no growth; 0.5: low growth; 1: moderate growth; 2: good growth; key to Col. (color of the colonies) / Fluo. (fluorescence of the colonies): —: no color/fluorescence
Description: as §1

[3] = test system: Candida glabrata NCPF 3 943; design: key to Growth: NG: no growth; 0.5: low growth; 1: moderate growth; 2: good growth; key to Col. (color of the colonies) / Fluo. (fluorescence of the colonies): —: no color/fluorescence
Description: as §1

[4] = test system: Enterococcus faecalis NCTC 775; design: key to Growth: NG: no growth; 0.5: low growth; 1: moderate growth; 2: good growth; key to Col. (color of the colonies) / Fluo. (fluorescence of the colonies): —: no color/fluorescence
Description: as §1

[5] = test system: Enterococcus faecium NCTC 7 171; design: key to Growth: NG: no growth; 0.5: low growth; 1: moderate growth; 2: good growth; key to Col. (color of the colonies) / Fluo. (fluorescence of the colonies): —: no color/fluorescence
Description: as §1

[6] = test system: Listeria monocytogenes NCTC 11 994; design: key to Growth: NG: no growth; 0.5: low growth; 1: moderate growth; 2: good growth; key to Col. (color of the colonies) / Fluo. (fluorescence of the colonies): —: no color/fluorescence
Description: as §1

[7] = test system: Pseudomonas aeruginosa NCTC 10 662; design: key to Growth: NG: no growth; 0.5: low growth; 1: moderate growth; 2: good growth; key to Col. (color of the colonies) / Fluo. (fluorescence of the colonies): —: no color/fluorescence
Description: as §1

[8] = test system: Salmonella typhimurium NCTC 74; design: key to Growth: NG: no growth; 0.5: low growth; 1: moderate growth; 2: good growth; key to Col. (color of the colonies) / Fluo. (fluorescence of the colonies): —: no color/fluorescence
Description: as §1

[9] = test system: Staphylococcus aureus NCTC 11 939; design: key to Growth: NG: no growth; 0.5: low growth; 1: moderate growth; 2: good growth; key to Col. (color of the colonies) / Fluo. (fluorescence of the colonies): —: no color/fluorescence
Description: as §1

[10] = test system: Staphylococcus aureus NCTC 6 571; design: key to Growth: NG: no growth; 0.5: low growth; 1: moderate growth; 2: good growth; key to Col. (color of the colonies) / Fluo. (fluorescence of the colonies): —: no color/fluorescence
Description: as §1

[11] = test system: Staphylococcus epidermidis NCTC 11 047; design: key to Growth: NG: no growth; 0.5: low growth; 1: moderate growth; 2: good growth; key to Col. (color of the colonies) / Fluo. (fluorescence of the colonies): —: no color/fluorescence
Description: as §1

[12] = test system: Streptococcus pyogenes NCTC 8 306; design: key to Growth: NG: no growth; 0.5: low growth; 1: moderate growth; 2: good growth; key to Col. (color of the colonies) / Fluo. (fluorescence of the colonies): —: no color/fluorescence
Description: as §1

[13] = test system: Yersinia enterocolitica NCTC 11 176; design: key to Growth: NG: no growth; 0.5: low growth; 1: moderate growth; 2: good growth; key to Col. (color of the colonies) / Fluo. (fluorescence of the colonies): —: no color/fluorescence
Description: as §1

[14] = test system: Enterobacter cloacae NCTC 11 936; design: key to Growth: NG: no growth; 0.5: low growth; 1: moderate growth; 2: good growth; key to Col. (color of the colonies): —: no color/fluorescence
Description: as §1

[15] = test system: Escherichia coli NCTC 10 418; design: key to Growth: NG: no growth; 0.5: low growth; 1: moderate growth; 2: good growth; key to Col. (color of the colonies): —: no color/fluorescence
Description: as §1

[16] = test system: Providencia rettgeri NCTC 7 475; design: key to Growth: NG: no growth; 0.5: low growth; 1: moderate growth; 2: good growth; key to Col. (color of the colonies): —: no color/fluorescence
Description: as §1

[17] = test system: Serratia marcescens NCTC 10 211; design: key to Growth: NG: no growth; 0.5: low growth; 1: moderate growth; 2: good growth; key to Col. (color of the colonies): —: no color/fluorescence
Description: as §1

[18] = 40 mg substrate in 400 ml Columbia medium

Growth [1, 18]: NG
Fluo. (fluorescence of the colonies) ([1]; UV lamp at 365 nm): —
Col. (color of the colonies) ([1]; examined visually): —
Growth [4, 18]: 1
Fluo. (fluorescence of the colonies) ([4]; UV lamp at 365 nm): —
Col. (color of the colonies) ([4]; examined visually): —
Growth [5, 18]: 1
Fluo. (fluorescence of the colonies) ([5]; UV lamp at 365 nm): —
Col. (color of the colonies) ([5]; examined visually): —
Growth [6, 18]: 1
Fluo. (fluorescence of the colonies) ([6]; UV lamp at 365 nm): —
Col. (color of the colonies) ([6]; examined visually): —
Growth [7, 18]: 2
Fluo. (fluorescence of the colonies) ([7]; UV lamp at 365 nm): —
Col. (color of the colonies) ([7]; examined visually): —
Growth [8, 18]: 0.5
Fluo. (fluorescence of the colonies) ([8]; UV lamp at 365 nm): —
Col. (color of the colonies) ([8]; examined visually): —
Growth [12, 18]: 1
Fluo. (fluorescence of the colonies) ([12]; UV lamp at 365 nm): —
Col. (color of the colonies) ([12]; examined visually): —
Growth [14, 18]: 2
Fluo. (fluorescence of the colonies) ([14]; UV lamp at 365 nm): Yellow
Col. (color of the colonies) ([14]; examined visually): —
Growth [17, 18]: 2
Fluo. (fluorescence of the colonies) ([17]; UV lamp at 365 nm): Yellow
Col. (color of the colonies) ([17]; examined visually): —
Structure (SMILES): O=[N+]([O-])c1ccc(C=Cc2ccncc2)cc1 [4NSP, 4,4′-Nitrostyrylpyridine]
Growth [2, 18]: NG
Fluo. (fluorescence of the colonies) ([2]; UV lamp at 365 nm): —
Col. (color of the colonies) ([2]; examined visually): —
Growth [3, 18]: 1
Fluo. (fluorescence of the colonies) ([3]; UV lamp at 365 nm): —
Col. (color of the colonies) ([3]; examined visually): —
Growth [9, 18]: 1
Fluo. (fluorescence of the colonies) ([9]; UV lamp at 365 nm): —
Col. (color of the colonies) ([9]; examined visually): —
Growth [10, 18]: 1
Fluo. (fluorescence of the colonies) ([10]; UV lamp at 365 nm): —
Col. (color of the colonies) ([10]; examined visually): —
Growth [11, 18]: 0.5
Fluo. (fluorescence of the colonies) ([11]; UV lamp at 365 nm): —
Col. (color of the colonies) ([11]; examined visually): —
Growth [13, 18]: 2
Fluo. (fluorescence of the colonies) ([13]; UV lamp at 365 nm): —
Col. (color of the colonies) ([13]; examined visually): —
Growth [15, 18]: 2
Fluo. (fluorescence of the colonies) ([15]; UV lamp at 365 nm): Yellow
Col. (color of the colonies) ([15]; examined visually): —
Growth [16, 18]: 2
Fluo. (fluorescence of the colonies) ([16]; UV lamp at 365 nm): Pale yellow
Col. (color of the colonies) ([16]; examined visually): —
